Assay results taken from PMC11377542, “An artificial intelligence accelerated virtual screening platform for drug discovery” (Nature Communications, 2024).
No end group written: not given here. *: point of attachment. Biotin = O=C1N[C@H]2[C@H](CS[C@H]2CCCCC(=O)*)N1

T1: KLHDC2 (Homo sapiens, UniProt Q9Y2U9)
T1 construct: human KLHDC2 (UniProt: Q9Y2U9, amino acid 1–362); made in house; host or cells: HighFive insect cells (baculovirus, pFastBac)
T1 sequence (Q9Y2U9 1-362): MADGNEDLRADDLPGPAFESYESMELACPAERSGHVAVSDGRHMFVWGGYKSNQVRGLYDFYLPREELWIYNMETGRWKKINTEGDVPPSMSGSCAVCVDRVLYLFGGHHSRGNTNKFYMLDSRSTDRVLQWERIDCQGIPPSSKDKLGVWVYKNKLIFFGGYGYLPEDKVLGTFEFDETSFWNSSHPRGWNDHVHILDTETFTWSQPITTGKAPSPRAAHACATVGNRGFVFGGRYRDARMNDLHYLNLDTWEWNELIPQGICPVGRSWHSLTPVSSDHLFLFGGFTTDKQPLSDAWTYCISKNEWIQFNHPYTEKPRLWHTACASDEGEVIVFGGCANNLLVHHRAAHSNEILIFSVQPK

T2: GST-tagged kelch repeat domain of human KLHDC2 (amino acid 1-362) (human, UniProt Q9Y2U9 1-362)
T2 construct: kelch repeat domain of human KLHDC2, UniProt Q9Y2U9, amino acids 1-362; A TEV cleavage site lies between GST and KLHDC2; GST was not cleaved for the AlphaLISA and BLI assays; The crystallised construct (22-362, His-TSF cleaved, from E. coli) was used only with the small molecule C29; also called GST-KLHDC2; GST-tagged KLHDC2; source: HighFive insect cells (baculovirus), purified (glutathione …)
T2 sequence (looked up): T1 sequence (Q9Y2U9 1-362)

B1: N-terminal biotinylated 12 aa SelK degron peptide (peptide)
peptide: Biotin-HLRGSPPPMAGG
notes: diglycine-containing C-end degron of SelK (selenoprotein K), 12 aa; the C-terminal mark is cut off in print; also called SelK C-end degron peptide; biotinylated 12 aa SelK peptide; source: synthetic peptide (Bio-Synthesis, Inc.)

Columns and labels:
KLHDC2 = target: T1, KLHDC2; assay: AlphaLISA competition assay (displacement of SelK C-end degron peptide from GST-KLHDC2); assay type: binding; details: IC50, competition with biotinylated 12 aa SelK degron peptide; 12-point titration, n = 3 technical replicates
Source text: We took the top-ranked 1000 compounds and filtered out compounds with low predicted solubility, unsatisfied hydrogen bonds in the bound conformation, and followed by similarity clustering to reduce the redundancy in ligand structures. A total of 54 molecules that passed the filtering and clustering were manually examined for favorable interactions and geometries in PyMol[34]. Finally, 37 compounds were chosen for chemical synthesis. Out of these, 29 compounds were successfully synthesized (Supplementary Fig. 13) and characterized in an AlphaLISA competition assay, in which each compound was tested for its ability to compete with a diglycine-containing SelK C-end degron peptide for binding KLHDC2. […] This single digit μM IC50 was further confirmed in a competition assay using BioLayer Interferometry (Supplementary Fig. 14).
The kelch repeat domain of human KLHDC2 (UniProt: Q9Y2U9, amino acid 1–362) was subcloned into the pFastBac vector with an N-terminally fused glutathione-S-transferase (GST), and a TEV-cleavage site. A recombinant baculovirus was produced and amplified three times in Sf9 monolayer cells to produce P4. The P4 virus was used to infect HighFive suspension insect cell cultures to produce the recombinant GST-KLHDC2 protein. The cells were harvested 2–3 days post-infection, re-suspended, and lysed in lysis buffer (20 mM Tris, pH 8.0, 200 mM NaCl, 5 mM DTT) in the presence of protease inhibitors (1 μg/ml Leupeptin, 1 μg/ml Pepstatin and 100 μM PMSF) using a microfluidizer. The GST-KLHDC2 protein was isolated from the soluble cell lysate by PierceTM Glutathione Agarose (Thermo Scientific). For AlphaLISA competition assays, the GST-tagged KLHDC2 was further purified by Q Sepharose High-Performance resin (GE Healthcare). The NaCl eluates were subjected to a Superdex-200 size exclusion chromatography column (GE Healthcare). All samples were flash-frozen in liquid nitrogen for storage prior to use. For protein crystallization, the kelch repeat domain of human KLHDC2 (amino acids 22–362) was subcloned into the pET vector with an N-terminally fused His-elongation factor Ts (TSF) and a TEV-cleavage site. The His-TSF-KLHDC2 protein was overexpressed and purified from BL21 (DE3) E. coli cells. Bacterial cells transformed with the pET-based expression plasmid were grown in LB broth to an OD600 of 0.8–1 and induced with 0.5 mM IPTG. Cells were harvested, re-suspended, and lysed in lysis buffer (20 mM Tris, pH 8.0, 200 mM NaCl, 20 mM imidazole) in the presence of protease inhibitors (1 μg mL–1 leupeptin, 1 μg mL–1 pepstatin and 100 μM phenylmethylsulfonyl fluoride) using a microfluidizer. The His-TSF-KLHDC2 protein was isolated from the soluble cell lysate by HisPurTM Ni-NTA Superflow Agarose (Thermo Fisher Scientific, Waltham, Massachusetts). After TEV cleavage of the His-TSF, KLHDC2 was further purified by Mono Q™ 5/50 GL (GE Healthcare, Chicago, Illinois). The NaCl eluates were subjected to Superdex-200 size-exclusion chromatography (GE Healthcare). Native mass spectrometry was used to confirm KLHDC2 in its apo form. The samples were concentrated by ultrafiltration to 10–22 mg mL−1. All samples were flash-frozen in liquid nitrogen for storage prior to use.
AlphaLISA assays for determining and measuring protein-protein interactions were performed using an EnSpire reader (PerkinElmer). GST-tagged KLHDC2 was attached to anti-GST AlphaLISA acceptor beads. Synthetic N-terminal biotinylated 12 aa SelK degron peptide ([Biotin]HLRGSPPPMAGG[C) (Bio-Synthesis, Inc.) was immobilized to streptavidin-coated AlphaLISA donor beads. The donor and acceptor beads were brought into proximity by the interactions between the SelK peptide and KLHDC2. Excitation of the donor beads by a laser beam of 680 nm promotes the formation of singlet oxygen. When an acceptor bead is in close proximity, the singlet oxygen reacts with thioxene derivatives in the acceptor beads and causes the emission of 615 nm photons, which are detected as the binding signal. […]

hNaV1.7 channel = target: T3, hNaV1.7 channel (Homo sapiens, UniProt Q15858); assay: Whole-cell patch-clamp electrophysiology on hNaV1.7 stably expressed in HEK-293 cells; assay type: cell-based; details: NaV1.7 inactivated state, -70 mV holding potential; mean; read-out: inactivated-state IC50
T3 construct: expressed in transfected cells
Source text: We first clustered the top 100,000 ranked small molecules, then applied filters on the top 1000 cluster representative molecules. A total of 160 molecules that passed the clustering and filtering were examined manually. To ensure the chemical novelty of our selection, we specifically excluded molecules that contain the known arylsulfonamide warhead or structurally resemble antihistamines or beta-receptor blockers. Finally, ten molecules with Tanimoto similarities of less than 0.33 to the known inhibitors of NaV1.7 from the ChEMBL database[43],[44] were selected for synthesis. Of these, nine were successfully synthesized (Supplementary Fig. 16), and their activities were measured using the whole-cell patch-clamp electrophysiology assay on hNaV1.7 channel stably expressed in HEK-293 cells as described in Methods.
HEK-293 cells stably expressing human NaV1.5 and NaV1.7 were obtained from Dr. Chris Lossin (UC Davis, CA). HEK293 cells stably expressing HERG (hKv11.1) were a gift from Craig January (University of Wisconsin, Madison). Cells were cultured in complete DMEM supplemented with 10% FBS, 1% penicillin/streptomycin, and G418. All manual whole-cell patch-clamp recordings were performed at room temperature (22–24 °C) using an EPC-10 amplifier (HEKA Electronik, Lambrecht/Pfalz, Germany) on cells that were grown to 60–80% confluency, lifted with TrypLE, and plated onto poly-l-lysine–coated coverslips. External bath solution contains (in mM) 160 NaCl, 4.5 KCl, 2 CaCl2, 1 MgCl2, 10 HEPES (pH 7.4 and 305 mOsm) as. Patch pipettes were heat-pulled from soda lime glass (micro-hematocrit tubes, Kimble Chase, Rochester, NY) and had resistances of 2–3 MΩ when filled with an internal solution. Patch recordings of NaV1.5 and NaV1.7 channels were done using a cesium fluoride-based internal solution containing (in mM) 10 NaF, 110 CsF, 20 CsCl, 10 HEPES, 2 EGTA, (pH 7.4, 310 mOsm). Recordings of HERG channels were conducted using a potassium fluoride-based internal solution with added ATP (160 mM KF, 2 mM MgCl2, 10 mM EGTA, 10 mM HEPES, 4 mM NaATP, pH = 7.2 and 300–320 mOsm). Data acquisition and analysis were performed with Pulse-PulseFit (HEKA Electronik GmbH, Germany), IgorPro (WaveMetrics, Portland, OR), and Origin 9.0 software (OriginLab Corporation, Northampton, MA). To investigate specifically the inactivated state block of NaV1.7 and NaV1.5, holding potentials were set at the V1/2 of maximal inactivation (− 70 mV and − 80 mV, respectively) before voltage stepping to − 150 mV for 20 msec, and then 0 mV for 50 msec to elicit inward currents. Inhibition of currents in the resting state was recorded using a holding potential of − 120 mV. Control test currents were monitored for up to 5–10 min to ensure that the amplitude and kinetics of the response were stable. Series resistance was compensated to 80–90% and linear leak currents and capacitance artifacts were corrected using a P/4 subtraction method. The pulse interval was 0.1 Hz. For all experiments, stock solutions of the drugs were prepared fresh from 10 mM stocks in DMSO and test solutions prepared in external bath solutions were applied to individual cells into the recording bath. […] The percent reduction of HERG tail current amplitude by the compounds was determined. The percent of a block of tail current amplitude by the drugs was determined and data are shown as mean +/− SD (n = 3–4 per data point).

[1] = target: T2, GST-tagged kelch repeat domain of human …; assay: AlphaScreen or HTRF; AlphaLISA competition assay: GST-KLHDC2 (3.83 nM) on anti-GST acceptor beads, biotinylated SelK peptide (5.55 nM) on streptavidin donor beads; 25 mM HEPES pH 7.5, 100 mM NaCl, 1 mM TCEP, 0.1% Tween-20, 0.05 mg/ml BSA; small-molecule competitors 15 nM to 1.5 mM; details: both partners purified

T3 sequence (Q15858 whole entry): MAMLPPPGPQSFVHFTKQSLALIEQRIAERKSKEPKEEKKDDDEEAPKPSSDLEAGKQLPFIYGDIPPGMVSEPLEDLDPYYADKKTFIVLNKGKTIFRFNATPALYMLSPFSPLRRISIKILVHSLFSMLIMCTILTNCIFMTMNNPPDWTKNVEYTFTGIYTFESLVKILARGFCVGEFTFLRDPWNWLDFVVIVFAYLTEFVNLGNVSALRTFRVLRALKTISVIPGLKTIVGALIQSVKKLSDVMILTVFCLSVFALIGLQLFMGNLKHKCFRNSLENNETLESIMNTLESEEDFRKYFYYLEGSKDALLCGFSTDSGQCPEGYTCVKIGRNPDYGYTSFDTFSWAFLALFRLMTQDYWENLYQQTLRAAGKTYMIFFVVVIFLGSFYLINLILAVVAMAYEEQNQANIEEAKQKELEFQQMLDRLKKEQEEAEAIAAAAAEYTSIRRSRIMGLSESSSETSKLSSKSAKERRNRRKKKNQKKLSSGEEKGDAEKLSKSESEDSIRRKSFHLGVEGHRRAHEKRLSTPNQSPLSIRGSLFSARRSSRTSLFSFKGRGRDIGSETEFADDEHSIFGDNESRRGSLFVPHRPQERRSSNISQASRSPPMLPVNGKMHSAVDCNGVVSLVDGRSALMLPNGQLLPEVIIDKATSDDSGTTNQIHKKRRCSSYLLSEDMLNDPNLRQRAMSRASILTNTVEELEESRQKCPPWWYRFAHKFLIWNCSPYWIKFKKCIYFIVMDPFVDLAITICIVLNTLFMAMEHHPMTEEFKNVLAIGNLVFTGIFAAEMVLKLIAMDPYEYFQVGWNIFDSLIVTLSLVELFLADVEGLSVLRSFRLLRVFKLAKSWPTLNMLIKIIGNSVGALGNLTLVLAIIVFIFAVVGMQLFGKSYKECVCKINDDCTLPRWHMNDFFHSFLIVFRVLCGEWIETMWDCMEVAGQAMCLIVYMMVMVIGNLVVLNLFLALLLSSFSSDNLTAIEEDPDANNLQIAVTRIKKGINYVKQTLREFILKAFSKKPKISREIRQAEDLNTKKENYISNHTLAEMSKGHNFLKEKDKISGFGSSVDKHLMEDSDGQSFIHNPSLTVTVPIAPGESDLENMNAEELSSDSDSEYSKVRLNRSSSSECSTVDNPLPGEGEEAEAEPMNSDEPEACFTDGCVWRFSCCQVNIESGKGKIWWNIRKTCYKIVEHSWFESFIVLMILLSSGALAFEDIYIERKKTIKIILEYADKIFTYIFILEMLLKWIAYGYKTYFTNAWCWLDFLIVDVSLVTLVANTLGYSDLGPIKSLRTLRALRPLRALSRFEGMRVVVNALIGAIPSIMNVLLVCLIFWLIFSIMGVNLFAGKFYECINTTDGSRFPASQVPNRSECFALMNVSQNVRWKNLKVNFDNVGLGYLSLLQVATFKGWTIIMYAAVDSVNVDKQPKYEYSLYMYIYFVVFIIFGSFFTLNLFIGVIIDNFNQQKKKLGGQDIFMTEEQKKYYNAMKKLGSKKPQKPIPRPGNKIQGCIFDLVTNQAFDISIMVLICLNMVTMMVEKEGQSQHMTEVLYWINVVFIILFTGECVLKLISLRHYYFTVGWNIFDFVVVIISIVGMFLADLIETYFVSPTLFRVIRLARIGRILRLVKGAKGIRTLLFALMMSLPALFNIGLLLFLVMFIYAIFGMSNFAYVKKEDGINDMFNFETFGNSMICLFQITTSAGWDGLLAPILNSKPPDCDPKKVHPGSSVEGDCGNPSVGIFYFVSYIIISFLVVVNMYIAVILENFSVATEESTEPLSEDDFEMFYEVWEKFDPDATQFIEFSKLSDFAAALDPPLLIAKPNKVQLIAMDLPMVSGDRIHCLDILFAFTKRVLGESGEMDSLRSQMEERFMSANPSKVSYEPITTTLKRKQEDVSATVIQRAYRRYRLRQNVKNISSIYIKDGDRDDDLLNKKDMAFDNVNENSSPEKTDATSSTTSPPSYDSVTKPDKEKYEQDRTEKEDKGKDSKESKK

Molecule | IC50 (KLHDC2) | other results
CC(=CC(=O)N1CCN(C(=O)Cc2cnc3ncccn23)C2CC21)C(C)C (stereo not shown) [Compound C1] | 488 µM | 
CN(Cc1cn(CC(=O)O)nn1)C(=O)CCCSc1ccc(Cl)cc1 [Compound C2.4] | 10 µM | 
C=CCN(Cc1cn(CC(=O)O)nn1)C(=O)CSc1cc(C)ccc1C [Compound C2.6] | 6.2 µM | 
Cc1cc(C)c(C(=O)NCC(=O)NCc2cn(CC(=O)O)nn2)s1 [Compound C2.8] | 1.1 µM | 
O=C(O)Cn1cc(CNC(=O)c2ccccc2SCC2CCCO2)nn1 (stereo not shown) [Compound C2.16] | 3.3 µM | 
C=CCN(Cc1cn(CC(=O)O)nn1)C(=O)CCSCc1ccccc1 [Compound C2.19] | 3.4 µM | 
CC(NC(=O)CSCc1nc2ccccc2s1)c1cn(CC(=O)O)nn1 (stereo not shown) [Compound C2.20] | 4.1 µM | 
C[C@H]1CN(C(=O)C(OC(C)(C)C)C(C)(C)C)C[C@H]1NC(=O)CCn1ccnn1 (stereo partly shown) [Compound C4] | 2070 µM | 
CC1(C)CCCC(CC(=O)NC(C)(C)CNC(=O)c2ccnnc2S)C1 (stereo not shown) [Compound C6] | 124 µM | 
Cc1cc(C(=O)NCCCn2cnnn2)c(C)n1Cc1ccccc1 [Compound C17] | 121 µM | 
COc1ccc(CN(C)C(=O)COC(=O)Cn2ccnn2)cc1OC [Compound C18] | 377 µM | 
CC(C)=CCOc1ccc(CCC(C)NCC(O)CCC2CC2)cc1 (stereo not shown) [Compound Z8739905023, CC(CCC=1C=CC(OCC=C(C)C)=CC1)NCC(O)CCC2CC2] |  | IC50 (hNaV1.7 channel): 2300 nM
B1 |  | binding result [1]: binds
